From patent publication US12251387B2, “Substituted quinoxalines and benzo[c][1,2,5]oxadiazoles as DNA-PK inhibitors” (Vertex Pharmaceuticals Incorporated, priority 2013, dated 2025)

What follows are compounds tested against DNA-PK (Homo sapiens, UniProt P78527) (assay: DNA-PK Inhibition Assay (standard radiometric kinase assay, 33P-ATP, peptide substrate)). Conditions: radiometric assay, approximately 6 nM DNA-PK, 100 μM ATP, 45 min; fit to competitive tight-binding inhibition; read-out: Ki for the inhibition of DNA-PK.
Format: biochemical
How it was run: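 Radiometric transfer of 33P from ATP (100 μM) to peptide substrate (0.8 mg/mL) by about 6 nM DNA-PK with 10 μg/mL sheared dsDNA, pH 7.5 HEPES/MgCl2, 45 min, phosphoric acid quench, filter capture and scintillation counting. Ki fitted to a competitive tight-binding inhibition model.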

Ki, < 100 nM:
c1cnc2c(O[C@H]3CC[C@@H](Nc4ccn5nccc5n4)CC3)cc(N3CCOCC3)cc2n1 [Compound 498]
CC(C)c1ccnc(N[C@H]2CC[C@@H](Oc3cc(N4CCOCC4)cc4nccnc34)CC2)n1 [Compound 634]
CN(C)Cc1cc(N[C@H]2CC[C@@H](Oc3cc(N4CCOCC4)cc4nccnc34)CC2)ncn1 [Compound 390]
FC(F)(F)c1ncc(N[C@H]2CC[C@@H](Oc3cc(N4CCOCC4)cc4nccnc34)CC2)cn1 [Compound 428]
CNC(=O)c1cc(N[C@H]2CC[C@@H](Oc3cc(N4CCOCC4)cc4nccnc34)CC2)ncn1 [Compound 360]
COc1nccnc1N[C@H]1CC[C@@H](Oc2cc(N3CCOCC3)cc3nccnc23)CC1 [Compound 312]
CNc1ncc(OC)c(N[C@H]2CC[C@@H](Oc3cc(N4CCOCC4)cc4nccnc34)CC2)n1 [Compound 387]
Cc1ccnc(N[C@H]2CC[C@@H](Oc3cc(N4CCOCC4)cc4nccnc34)CC2)c1 [Compound 283]
O=C(NCC1CCCCC1)N[C@H]1CC[C@@H](Oc2cc(N3CCOCC3)cc3nccnc23)CC1 [Compound 410]
COc1nc(Cl)nc(N[C@H]2CC[C@@H](Oc3cc(N4CCOCC4)cc4nccnc34)CC2)n1 [Compound 609]
OCCN1CCN(c2cc(N[C@H]3CC[C@@H](Oc4cc(N5CCOCC5)cc5nccnc45)CC3)ncn2)CC1 [Compound 499]
OC1(c2ccc(N[C@H]3CC[C@@H](Oc4cc(N5CCOCC5)cc5nccnc45)CC3)cn2)COC1 [Compound 468]
CN1CCC(c2ccnc(N[C@H]3CC[C@@H](Oc4cc(N5CCOCC5)cc5nccnc45)CC3)n2)CC1 [Compound 549]
CC(C)Nc1cnc(N[C@H]2CC[C@@H](Oc3cc(N4CCOCC4)cc4nccnc34)CC2)nc1 [Compound 152]
Cc1nc(C)c(F)c(N[C@H]2CC[C@@H](Oc3cc(N4CCOCC4)cc4nccnc34)CC2)n1 [Compound 463]
CN1CCC(Nc2ncnc(N[C@H]3CC[C@@H](Oc4cc(N5CCOCC5)cc5nccnc45)CC3)c2F)C1 (stereo partly shown) [Compound 381]
Clc1ccc(N[C@H]2CC[C@@H](Oc3cc(N4CCOCC4)cc4nccnc34)CC2)nn1 [Compound 40]
OCc1cccnc1N[C@H]1CC[C@@H](Oc2cc(N3CCOCC3)cc3nccnc23)CC1 [Compound 584]
CNC(=O)c1cnc(N[C@H]2CC[C@@H](Oc3cc(N4CCOCC4)cc4nccnc34)CC2)nc1C [Compound 287]
CN1CCN(c2ccc(N[C@H]3CC[C@@H](Oc4cc(N5CCOCC5)cc5nccnc45)CC3)nc2)CC1 [Compound 626]
c1cnc(NC[C@H]2C[C@@H](Oc3cc(N4CCOCC4)cc4nccnc34)C2)nc1 [Compound 307]
c1cc(C2CCNCC2)nc(N[C@H]2CC[C@@H](Oc3cc(N4CCOCC4)cc4nccnc34)CC2)n1 [Compound 551]
CN(C)c1ccc(N[C@H]2CC[C@@H](Oc3cc(N4CCOCC4)cc4nccnc34)CC2)nn1 [Compound 598]
Cc1cc(N[C@H]2CC[C@@H](Oc3cc(N4CCOCC4)cc4nccnc34)CC2)n[nH]1 [Compound 637]
COc1cnc(N(C)C)nc1N[C@H]1CC[C@@H](Oc2cc(N3CCOCC3)cc3nccnc23)CC1 [Compound 386]
